pKi: −log10 of the molar value. Like-named read-outs stand apart in the source and are kept apart here.
Key:
human H3 receptors [1] = biological target: T1, human H3 receptors (Homo sapiens (Human), UniProt Q9Y5N1); test: Potency assessment: blockade of (R)-alpha-methylhistamine-mediated cAMP production (LANCE Ultra cAMP kit); assay type: cell-based; details: CHO cells expressing human H3 receptors
Procedure: The potency of compounds of the invention as H3 receptor antagonists can be assessed by measuring the blockade of (R)-alpha-methylhistamine-mediated cAMP production utilizing a LANCE Ultra cAMP kit (PE #TRF0263) in CHO cells expressing human H3 receptors (GenBank: BC096840; Strausberg R L et al, Proc. Natl. Acad. Sci. U.S.A. 99(26), 16899-16903; 2002).
2. Preparation of assay plate: Different concentrations of the compounds of the invention (0.01-1000 nM), H3 positive controls and cAMP calibration standards; […] Forskolin (CALBIOCHEM #344270); 5 μM (R)-alpha-methylhistamine (H3 receptor agonist); 1% DMSO (SIGMA #D2650); total volume: 95 nl.
3. Preparation of the cell solution: Collect cells with stimulation buffer, final density: 100,000 cells/ml.
4. Reaction: (a) transfer 10 μl of cell solution to assay plate, (b) centrifuge at 600 rpm for 3 min and incubate 50 min at room temperature, (c) add 5 μL 4× Eu-cAMP tracer solution (60 μl Eu-cAMP tracer stock solution+2.94 ml cAMP detection buffer) and 5 μL 4× ULight™-anti-cAMP solution (20 μl […]+2.98 ml cAMP detection buffer) to assay plate.
5. Reading plate on EnVision: flash energy: 100%; excitation filter: 111 UV2 320; emission filter: 203 (Eu 615) and 205 (APC 665); number of laser flashes: 20; window: 100 μs; laser mirror module: 445 or 446; laser cycle: 16,600 μs.
6. Data analysis by GraphPad Prism: log (compound concentration) vs. response; variable slope.

human H3 receptors [2] = biological target: T1, human H3 receptors; test: Affinity assessment: displacement of [3H]-N-α-Methylhistamine binding to membranes; details: membranes containing human H3 receptors, radioligand [3H]-N-α-Methylhistamine
Procedure: The affinity of compounds of the invention to the H3 receptor can be assessed by measuring displacement of binding of the radioligand [3H]-N-α-Methylhistamine (PerkinElmer, #NET1027250UC) to membranes containing human H3 receptors (PerkinElmer, #ES-392-M400UA; GenBank: NM_007232.2; Hill S J et al, International Union of Pharmacology XIII. Classification of histamine receptors, Pharmacol Rev, 49(3), 253-278, 1997).
2. Compound serial dilution: Dilution was performed by BioTek Precision on compound dilution plate. Compound concentrations start at 5 or 10 μM, 10 point dose titrations with 3- or 5-fold serial dilutions.
3. Preparation of 2× membrane solution (25 ml): 1.25 ml human Histamine H3 receptor stock, 23.75 ml assay buffer.
4. Preparation of 2× solution of [3H]-N-α-methylhistamine (25 ml): 4.27 μl [3H]-N-α-methylhistamine stock, 25 ml assay buffer.
5. Assemble binding reaction: (a) transfer 1 μl of compound solution, 1 μl 100% DMSO and 1 μl 1 M (R)(−)-α-Methylhistamine (Sigma, #H128) to the reaction plate at room temperature, (b) transfer 50 μl of 2× protein solution to reaction plate, (c) transfer 49 μl of 2× radioligand solution to reaction plate (Corning® 96 well EIA/RIA plate; Sigma, #CLS3797).
6. Cover the reaction plate with a TopSeal™-A film (Perkin Elmer, #6005185) and incubate at 28° C. for 120 min. Equilibrate Zeba Spin Desalting Plates (Thermo Scientific, #89808) to room temperature for 120 min.
7. Remove the sealing material from the bottom of the filtration plate. Place the plate on a wash plate. Centrifuge at 1000 g for 2 min to remove the storage buffer at room temperature.
8. Transfer 70 μl binding reaction from reaction plate into filtration plates. Place the filtration plates on top of collection plate. Centrifuge the plate assembly at 1000 g for 2 min to collect the protein with bound radioligand. Add 200 μl of Microscint-40 (PerkinElmer, #6013641-1L) to each well of the collection plate. Cover the plates with TopSeal™-A film.
9. Read the plates on Wallac Microbeta Trilux 2450, Instrument settings: counting mode: CPM, counting time: 2 min.
10. Data analysis: GraphPad Prism: log (compound concentration) vs. response; variable slope. The Ki is calculated based on Chang and Prusoff: Ki=IC50/{1+([radioligand]/Kd)}

[3] = Solubility of solid forms in aqueous media; assay type: physicochemical

T1 sequence (Q9Y5N1 whole entry): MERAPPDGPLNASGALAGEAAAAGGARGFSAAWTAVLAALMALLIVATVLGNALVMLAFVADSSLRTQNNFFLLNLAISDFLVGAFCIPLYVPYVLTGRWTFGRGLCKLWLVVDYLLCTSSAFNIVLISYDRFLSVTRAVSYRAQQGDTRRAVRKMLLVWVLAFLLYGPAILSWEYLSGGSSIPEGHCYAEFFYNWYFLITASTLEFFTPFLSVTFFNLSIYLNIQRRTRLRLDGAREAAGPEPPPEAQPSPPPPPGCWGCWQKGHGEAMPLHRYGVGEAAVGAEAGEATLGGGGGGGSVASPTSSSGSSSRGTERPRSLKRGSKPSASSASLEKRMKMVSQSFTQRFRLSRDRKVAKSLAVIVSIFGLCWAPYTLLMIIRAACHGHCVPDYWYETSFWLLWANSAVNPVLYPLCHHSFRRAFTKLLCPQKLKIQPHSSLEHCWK

Row | SMILES | pKi (human H3 receptors [1]) | pKi (human H3 receptors [2]) | solubility in aqueous media ([3]; across a pH range from about 1-8) | solubility in aqueous media [3]
1 | CC(C)N1CCN(C(=O)OC2CCN(c3ccn(C)c(=O)c3)CC2)CC1 [Example 2.1, 1-(1-methyl-2-oxo-1,2-dihydropyridin-4-yl)piperidin-4-yl 4-isopropylpiperazine-1-carboxylate] | 8.51 | 7.70 |  | 
2 | Cn1nc(N2CCC(OC(=O)N3CCN(C4CCC4)CC3)CC2)ccc1=O [Example 1.5, 1-(1-methyl-6-oxo-1,6-dihydropyridazin-3-yl)piperidin-4-yl 4-cyclobutylpiperazine-1-carboxylate] | 8.96 | 7.60 |  | 
3 | Cn1nc(N2CCC(OC(=O)N3CCN(C4CCC4)CC3)CC2)ccc1=O [Form A of the free from, 1-(1-methyl-6-oxo-1,6-dihydropyridazin-3-yl)piperidin-4-yl 4-cyclobutylpiperazine-1-carboxylate] |  |  | good solubility | 
4 | CC(C)N1CCN(C(=O)OC2CCN(c3cc[nH]c(=O)c3)CC2)CC1 [Example 2.3, 1-(2-oxo-1,2-dihydropyridin-4-yl)piperidin-4-yl 4-isopropylpiperazine-1-carboxylate] | 9.05 | 7.92 |  | 
5 | O=C(OC1CCN(c2ccc(=O)[nH]n2)CC1)N1CCN(C2CC2)CC1 [Example 1.4, 1-(6-oxo-1,6-dihydropyridazin-3-yl)piperidin-4-yl 4-cyclopropylpiperazine-1-carboxylate] | 8.64 | 7.60 |  | 
6 | CC(C)N1CCN(C(=O)OC2CCN(c3ccc(=O)[nH]c3)CC2)CC1 [Example 3.1, 1-(6-oxo-1,6-dihydropyridin-3-yl)piperidin-4-yl 4-isopropylpiperazine-1-carboxylate] | 8.80 | 8.92 |  | 
7 | Cn1nc(N2CCC(OC(=O)N3CCN(C4CCC4)CC3)CC2)ccc1=O [Form B of the free from, 1-(1-methyl-6-oxo-1,6-dihydropyridazin-3-yl)piperidin-4-yl 4-cyclobutylpiperazine-1-carboxylate] |  |  |  | good solubility
8 | CCn1nc(N2CCC(OC(=O)N3CCN(C(C)C)CC3)CC2)ccc1=O [Example 1.6, 1-(1-ethyl-6-oxo-1,6-dihydropyridazin-3-yl)piperidin-4-yl 4-isopropylpiperazine-1-carboxylate] | 8.54 | 7.36 |  | 
9 | O=C(OC1CCN(c2cc[nH]c(=O)c2)CC1)N1CCN(C2CCC2)CC1 [Example 2.2, 1-(2-oxo-1,2-dihydropyridin-4-yl)piperidin-4-yl 4-cyclobutylpiperazine-1-carboxylate] | 9.30 | 7.60 |  | 

— patent US9034874B2, “Carbamate/urea derivatives” (NOVARTIS AG, priority 2012, dated 2015)
